Assay results from the supplement of paper PMC8967900.

What was measured:
Experiment in all cases: selective drug sensitivity score (sDSS, relative to normal bone marrow) (sDSS (score)); higher = more potent and effective on the cell line relative to normal bone marrow cells
Conditions in all cases: 72 h
ALL-PO = system: ALL-PO
NALM-6 = system: NALM-6
KASUMI-2 = system: KASUMI-2
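Note: ALL cell lines in 384-well plates, five doses spanning 10,000-fold, each plate scaled between vehicle and 100 µmol/L benzalkonium chloride controls, sDSS an adapted area-under-curve metric.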

| Structure (SMILES) | selective drug sensitivity score (ALL-PO) | selective drug sensitivity score (NALM-6) | selective drug sensitivity score (KASUMI-2) |
| --- | --- | --- | --- |
| COCCNCc1ccc(-c2cc3nccc(Oc4ccc(NC(=S)NC(=O)Cc5ccc(F)cc5)cc4F)c3s2)nc1 [Glesatinib] (top concentration 2500 nM) | 9.04 | -1.96 | 4.74 |
| C=CC(=O)N1CCC[C@@H](n2nc(-c3ccc(Oc4ccccc4)cc3)c3c(N)ncnc32)C1 [Ibrutinib] (top concentration 1000 nM) | 1.8 | 2.4 | 0 |
| CC[C@H](Nc1ncnc2[nH]cnc12)c1nc2cccc(F)c2c(=O)n1-c1ccccc1 [Idelalisib] (top concentration 10000 nM) | -1.06 | 7.24 | 8.04 |
| O=C(Nc1ccncc1)C(=O)c1cn(Cc2ccc(Cl)cc2)c2ccccc12 [Indibulin] (top concentration 10000 nM) | 12.7 | 0.34 | 7.14 |
| CC(C)C[C@H](NC(=O)CNC(=O)c1cc(Cl)ccc1Cl)B(O)O [Ixazomib] (top concentration 1000 nM) | 8.46 | 6.66 | 4.66 |
| CC(C)NC(=O)COc1cccc(-c2nc(Nc3ccc4[nH]ncc4c3)c3ccccc3n2)c1 [KD025] (top concentration 5000 nM) | 5.24 | 1.14 | -5.06 |
| Nc1cccc2c1CN(C1CCC(=O)NC1=O)C2=O (stereo not drawn) [Lenalidomide] (top concentration 100000 nM) | -2.28 | -2.28 | -2.28 |
| Sc1ncnc2nc[nH]c12 [Mercaptopurine] (top concentration 10000 nM) | 14.9 | 9.1 | 12.4 |
| Cc1ccc(C(=O)Nc2ccc(Oc3cc4cnn(C)c4cc3-c3cn[nH]c3)c(F)c2)c(=O)n1-c1ccc(F)cc1 [Merestinib] (top concentration 1000 nM) | 15.2 | -0.62 | -0.62 |
| CNC(=O)c1nn(C)c2c1C(C)(C)Cc1cnc(Nc3ccc(N4CCN(C)CC4)cc3)nc1-2 [Milciclib] (top concentration 10000 nM) | 9.94 | 1.94 | -2.56 |
| N#CCNC(=O)c1ccc(-c2ccnc(Nc3ccc(N4CCOCC4)cc3)n2)cc1 [Momelotinib] (top concentration 10000 nM) | 2.48 | -0.32 | -5.82 |
| Cc1ccc(C(=O)Nc2cccc(C(F)(F)F)c2)cc1Nc1nc(-c2cccnc2)nc2c1cnn2C [NVP-BHG712] (top concentration 10000 nM) | 2.48 | -2.32 | 2.38 |
| Cn1c(Nc2ccc(C(F)(F)F)cc2)nc2cc(Oc3ccnc(-c4ncc(C(F)(F)F)[nH]4)c3)ccc21 [NVP-RAF265] (top concentration 1000 nM) | 6.68 | -0.22 | -0.22 |
| CC1(C)CC[C@]2(NC(=O)C(C)(F)F)CC[C@]3(C)[C@H](C(=O)C=C4[C@@]5(C)C=C(C#N)C(=O)C(C)(C)[C@@H]5CC[C@]43C)[C@@H]2C1 [Omaveloxolone] (top concentration 10000 nM) | 3.08 | 2.58 | 6.38 |
| CC(C)c1cc(C(=O)N2Cc3ccc(CN4CCN(C)CC4)cc3C2)c(O)cc1O [Onalespib] (top concentration 2500 nM) | 1.62 | 5.52 | 7.72 |
| COC[C@H](NC(=O)c1cnc(C)s1)C(=O)N[C@@H](COC)C(=O)N[C@@H](Cc1ccccc1)C(=O)[C@@]1(C)CO1 [Oprozomib] (top concentration 2500 nM) | 0.8 | -0.4 | -1.1 |

| Structure (SMILES) | selective drug sensitivity score (ALL-PO) | selective drug sensitivity score (NALM-6) | selective drug sensitivity score (KASUMI-2) |
| --- | --- | --- | --- |
| COc1ccccc1S(=O)(=O)Nc1ccc2c(c1)CN(C)C(=O)N2 [PFI-1] (top concentration 30000 nM) | 2.7 | 1.7 | 2.4 |
| NS(=O)(=O)OC[C@@H]1C[C@@H](n2ccc3c(N[C@H]4CCc5ccccc54)ncnc32)C[C@@H]1O [Pevonedistat] (top concentration 10000 nM) | 12.7 | 12.1 | 6.3 |
| CCCCc1nc2cc(/C=C/C(=O)NO)ccc2n1CCN(CC)CC [Pracinostat] (top concentration 10000 nM) | 5.58 | 2.78 | 12.5 |
| COc1cccc(OCCCN)c1-c1cc(Nc2cnc(C#N)cn2)n[nH]1 [Prexasertib] (top concentration 10000 nM) | 14.5 | 18.4 | 16.2 |
| Cc1cn(-c2cc(NC(=O)c3ccc(C)c(Nc4nccc(-c5cnccn5)n4)c3)cc(C(F)(F)F)c2)cn1 [Radotinib] (top concentration 10000 nM) | 3.7 | 0.9 | 0 |
| Cn1nccc1Nc1nccc(-c2ccn([C@H](CO)c3ccc(Cl)c(F)c3)c(=O)c2)n1 [Ravoxertinib] (top concentration 10000 nM) | 3.6 | 4 | 4.2 |
| C/C=C1\NC(=O)[C@H]2CSSCC/C=C/[C@H](CC(=O)N[C@H](C(C)C)C(=O)N2)OC(=O)[C@H](C(C)C)NC1=O [Romidepsin] (top concentration 1000 nM) | 6.96 | 2.66 | 5.06 |
| CNCc1ccc(-c2[nH]c3cc(F)cc4c3c2CCNC4=O)cc1 [Rucaparib] (top concentration 10000 nM) | -0.58 | 0.62 | 3.02 |
| CC(C)(C)c1cnc(CSc2cnc(NC(=O)C3CCNCC3)s2)o1 [SNS-032] (top concentration 10000 nM) | -6.74 | -2.44 | -5.44 |
| Cc1c(C(=O)Nc2ccc(N3C[C@@H](C)O[C@@H](C)C3)nc2)cccc1-c1ccc(OC(F)(F)F)cc1 [Sonidegib] (top concentration 10000 nM) | 3.98 | 0.98 | -1.42 |
| CNC(=O)c1cc(Oc2ccc(NC(=O)Nc3ccc(Cl)c(C(F)(F)F)c3)cc2)ccn1 [Sorafenib] (top concentration 1000 nM) | 5.5 | 0.2 | 0 |
| CN1CCN(c2nc(C3=C(c4c[nH]c5ccccc45)C(=O)NC3=O)c3ccccc3n2)CC1 [Sotrastaurin] (top concentration 10000 nM) | 5 | 0.8 | 2.8 |
| Cc1cc(C(C)Nc2ccccc2)c2nc(N3CCOCC3)cc(=O)n2c1 (stereo not drawn) [TGX-221] (top concentration 10000 nM) | 1.16 | 3.56 | -1.64 |
| Cc1nc(-c2cn3c(n2)-c2ccc(-c4cnn(C(C)(C)C(N)=O)c4)cc2OCC3)n(C(C)C)n1 [Taselisib] (top concentration 1000 nM) | 13.2 | 9.5 | 4 |
| Cn1cncc1[C@@](N)(c1ccc(Cl)cc1)c1ccc2c(c1)c(-c1cccc(Cl)c1)cc(=O)n2C [Tipifarnib] (top concentration 10000 nM) | 9 | 10.6 | -1.3 |
